The target of data set [1] is T1, human soluble ENPP1 (Homo sapiens, UniProt P22413).
T1 construct: 20 ng of human soluble ENPP1
T1 sequence (P22413 103-925 limits assumed): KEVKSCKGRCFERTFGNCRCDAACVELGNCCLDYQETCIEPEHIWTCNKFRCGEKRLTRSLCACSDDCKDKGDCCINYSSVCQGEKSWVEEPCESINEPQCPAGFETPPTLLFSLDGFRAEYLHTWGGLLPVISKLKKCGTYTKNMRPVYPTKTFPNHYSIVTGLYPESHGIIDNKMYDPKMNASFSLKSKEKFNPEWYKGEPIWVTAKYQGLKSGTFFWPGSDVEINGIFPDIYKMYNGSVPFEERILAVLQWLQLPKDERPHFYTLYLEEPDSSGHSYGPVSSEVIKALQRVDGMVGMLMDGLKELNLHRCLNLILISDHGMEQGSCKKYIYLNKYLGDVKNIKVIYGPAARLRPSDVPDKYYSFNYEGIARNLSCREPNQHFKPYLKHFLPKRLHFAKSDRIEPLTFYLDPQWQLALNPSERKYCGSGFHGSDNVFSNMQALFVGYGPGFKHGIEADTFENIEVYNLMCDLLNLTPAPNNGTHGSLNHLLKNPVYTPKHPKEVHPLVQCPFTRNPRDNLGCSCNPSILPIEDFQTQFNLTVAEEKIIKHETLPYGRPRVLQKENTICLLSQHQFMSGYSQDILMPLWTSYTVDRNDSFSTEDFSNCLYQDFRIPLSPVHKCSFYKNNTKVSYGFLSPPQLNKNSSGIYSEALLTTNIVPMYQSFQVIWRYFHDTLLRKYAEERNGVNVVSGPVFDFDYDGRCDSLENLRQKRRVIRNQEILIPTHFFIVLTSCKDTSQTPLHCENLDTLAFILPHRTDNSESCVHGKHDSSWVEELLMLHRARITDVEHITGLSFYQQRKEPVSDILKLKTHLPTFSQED
Put plainly: ENPP1 activity assay using p-Nitrophenyl-5′-TMP as a substrate. Type of data set: biochemical. The essentials:
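Percent inhibition, set against uninhibited-enzyme and blank wells, was fitted to a four-parameter variable-slope model for IC50. Chromogenic read-out was p-nitrophenol released from TMP-pNP, added as a 2 mM […] solution for 1 h at RT. Before that, 20 ng soluble ENPP1 sat 30 min with compound.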

For data set [2], the target named is T1, human soluble ENPP1. Put plainly: ENPP1 activity assay using p-Nitrophenyl-5′-AMP as a substrate. Type of data set: biochemical. The essentials: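 Absorbance at 405 nm tracks p-nitrophenol from AMP-pNP hydrolysis after 1 h at room temperature, substrate added as 3 mM (2× final) following 30 min enzyme–compound preincubation. Enzyme: 35 ng human soluble ENPP1. IC50 fitted (variable-slope four-parameter) from percent inhibition normalized to max and blank.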

The nature of the next data set: Pharmacokinetics in mice. Type of data set: in vivo. The following applies: mouse, plasma, male CD-1 mice, 1 mg/kg, iv; for Vd: read-out: Vdss. The procedure:
A dosing solution of test sample was prepared at 1.0 mg/mL in 5% DMSO/40% PEG400/55% water and administered to male CD-1 mice (4-6 weeks old, 20-30 grams, 3 animals each group) via intravenous (IV) bolus at 1 mg/kg and by oral gavage (PO) at 5 mg/kg. Blood samples (˜0.03 mL each time point) were collected via the jugular vein into tubes containing sodium heparin as the anticoagulant at 0.033, 0.083, 0.25, 0.5, 1, 2, 4, 8 and 24 hours post dose for IV administration and 0.083, 0.25, 0.5, 1, 2, 4, 8 and 24 hours post dose for PO administration. The blood samples were then centrifuged for 5 minutes in a centrifuge refrigerated at 4° C. The resultant plasma samples were analyzed using LC/MS/MS to determine concentrations of test sample. Non-compartmental model with WinNonlin (Phoenix™, version 8.0) software was used to calculate pharmacokinetic (PK) parameters.

Another data set addresses T2, ENPP-1, MDA-MB-231 cells (Homo sapiens, UniProt P22413).
T2 sequence (P22413 1-925): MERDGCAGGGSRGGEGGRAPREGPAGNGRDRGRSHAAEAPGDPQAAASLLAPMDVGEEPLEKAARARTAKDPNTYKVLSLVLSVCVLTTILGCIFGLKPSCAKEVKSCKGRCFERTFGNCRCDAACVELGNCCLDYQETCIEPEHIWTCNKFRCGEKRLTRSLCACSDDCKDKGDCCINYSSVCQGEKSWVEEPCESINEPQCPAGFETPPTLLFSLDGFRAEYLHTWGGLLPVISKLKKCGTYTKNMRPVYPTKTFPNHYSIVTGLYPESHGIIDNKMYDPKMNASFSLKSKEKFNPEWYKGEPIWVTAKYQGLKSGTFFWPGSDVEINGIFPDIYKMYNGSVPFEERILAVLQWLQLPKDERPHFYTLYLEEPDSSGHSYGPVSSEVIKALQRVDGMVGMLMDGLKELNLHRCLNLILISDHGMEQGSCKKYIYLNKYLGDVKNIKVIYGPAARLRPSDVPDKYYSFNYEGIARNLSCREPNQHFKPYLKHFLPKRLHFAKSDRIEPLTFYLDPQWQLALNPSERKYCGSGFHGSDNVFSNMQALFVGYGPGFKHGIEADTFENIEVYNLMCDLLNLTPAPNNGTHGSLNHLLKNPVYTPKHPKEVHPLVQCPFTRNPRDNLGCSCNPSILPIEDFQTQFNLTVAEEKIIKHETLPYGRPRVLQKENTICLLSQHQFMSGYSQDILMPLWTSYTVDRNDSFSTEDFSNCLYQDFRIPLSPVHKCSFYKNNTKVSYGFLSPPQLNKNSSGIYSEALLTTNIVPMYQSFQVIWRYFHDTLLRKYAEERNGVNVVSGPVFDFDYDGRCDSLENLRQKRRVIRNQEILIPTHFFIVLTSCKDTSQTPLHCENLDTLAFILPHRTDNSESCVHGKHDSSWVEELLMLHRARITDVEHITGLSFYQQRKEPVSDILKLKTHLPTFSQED
Put plainly: cell-based. The following applies: for inhibition at 20 µM: MDA-MB-231, read-out: % Inhibition (at 20 μM).

[3] abbreviates: substrate TMP-pNP, 20 ng human soluble ENPP1, Tris buffer pH 9.5, read-out: TMP-pNP (IC50).

What is called IC50 is the concentration needed to halve the response being measured. The AUC is concentration integrated over time. Higher therefore signals more exposure. Usually clearance stands for the rate of elimination divided by the concentration. High values mean efficient removal, low ones inefficient removal. What is called half-life is the time needed for the level to fall by half in the phase considered. Usually inhibition stands for the percentage by which the read-out fell short of the control.

At human soluble ENPP1 [1], `COc1ccc2c(ncc3[nH]c(=O)n(Cc4ccc(S(N)(=O)=O)cc4)c32)n1` [Compound 38, 4-((7-methoxy-2-oxo-2,3-dihydro-1H-imidazo[4,5-c][1,8]naphthyridin-1-yl)methyl)benzenesulfonamide] had an IC50 of 0.31 nM. For the same molecule, the IC50 at human soluble ENPP1 [2] was 0.75 nM. Further, in the data set “Pharmacokinetics in mice”, the AUC is 370 ng·h/mL, the clearance was found to be 45 mL/min/kg, the half-life was 1.9 h and the Vd is 3.3 L/kg.
As for `COc1ccc2c(ncc3ncn(CC4CN(S(N)(=O)=O)C4)c32)n1` [Compound 52, 3-((7-methoxy-1H-imidazo[4,5-c][1,8]naphthyridin-1-yl)methyl)azetidine-1-sulfonamide], 0.54 nM corresponded to half-maximal inhibition at human soluble ENPP1 [1] (IC50). The IC50 against human soluble ENPP1 [2] was 2.2 nM. On ENPP-1, MDA-MB-231 cells, the IC50 is 1300 nM and the inhibition at 20 µM was 79%. Further, in “Pharmacokinetics in mice”, the AUC came to 179 ng·h/mL, the clearance was found to be 103 mL/min/kg, the half-life is 0.35 h and the Vd was found to be 1.1 L/kg.
At human soluble ENPP1 [1], `COc1ccc2c(ncc3ncn([C@H](C)c4ccc(S(N)(=O)=O)cn4)c32)n1` [Compound 60, (R)-6-(1-(7-methoxy-1H-imidazo[4,5-c][1,8]naphthyridin-1-yl)ethyl)pyridine-3-sulfonamide] displayed an IC50 of 0.31 nM. In addition, on human soluble ENPP1 [2], the IC50 amounted to 1.51 nM. Also, on ENPP-1, MDA-MB-231 cells, inhibition was half-maximal at 490 nM (IC50) and the inhibition at 20 µM was 83%. In “Pharmacokinetics in mice”, the AUC was determined as 215 ng·h/mL, the clearance was 78 mL/min/kg, the half-life is 2.5 h and the Vd is 11 L/kg.
With `COc1ccc2c(ncc3ncn(Cc4ccc(S(N)(=O)=O)c(F)c4)c32)n1` [Compound 61, 2-fluoro-4-((7-methoxy-1H-imidazo[4,5-c][1,8]naphthyridin-1-yl)methyl)benzenesulfonamide], half-maximal inhibition on human soluble ENPP1 [1] (IC50) required 0.53 nM. The same molecule yielded an IC50 against human soluble ENPP1 [2] of 1.9 nM. For the same molecule, at ENPP-1, MDA-MB-231 cells, 780 nM corresponded to half-maximal inhibition (IC50) and the inhibition at 20 µM came to 80%. Moreover, in “Pharmacokinetics in mice”, the AUC turned out to be 271 ng·h/mL, the clearance is 62 mL/min/kg, the half-life was 1.4 h and the Vd was 4.5 L/kg.
`COc1ccc2c(ncc3ncn(Cc4ccc(S(N)(=O)=O)cc4F)c32)n1` [Compound 62, 3-fluoro-4-((7-methoxy-1H-imidazo[4,5-c][1,8]naphthyridin-1-yl)methyl)benzenesulfonamide] returned an IC50 against human soluble ENPP1 [1] of 0.1 nM. On human soluble ENPP1 [2], this molecule had an IC50 of 1.5 nM. Moreover, at ENPP-1, MDA-MB-231 cells, the IC50 turned out to be 45 nM and the inhibition at 20 µM was 89%. Moreover, in the data set “Pharmacokinetics in mice”, the AUC stood at 163 ng·h/mL, the clearance is 105 mL/min/kg, the half-life is 4.9 h and the Vd is 39 L/kg.
`COc1ccc2c(ncc3ncn(Cc4ccc(S(N)(=O)=O)c(C(F)(F)F)c4)c32)n1` [Compound 65, 4-((7-methoxy-1H-imidazo[4,5-c][1,8]naphthyridin-1-yl)methyl)-2-(trifluoromethyl)benzenesulfonamide] had an IC50 on human soluble ENPP1 [1] of 3 nM. At human soluble ENPP1 [2], this molecule registered a concentration for half-maximal inhibition (IC50) of 8.7 nM. In addition, at ENPP-1, MDA-MB-231 cells, the IC50 amounted to 1600 nM and the inhibition at 20 µM came to 75%. In addition, in the data set “Pharmacokinetics in mice”, the AUC turned out to be 185 ng·h/mL, the clearance was 92 mL/min/kg, the half-life is 0.72 h and the Vd is 3.1 L/kg.
Regarding `COc1ccc2c(ncc3nc(C)n(Cc4cc(F)c(S(N)(=O)=O)cc4F)c32)n1` [Compound 70, 2,5-difluoro-4-((7-methoxy-2-methyl-1H-imidazo[4,5-c][1,8]naphthyridin-1-yl)methyl)benzenesulfonamide], the IC50 against human soluble ENPP1 [1] worked out at 0.64 nM. The same molecule came in with an IC50 against human soluble ENPP1 [2] of 1.2 nM. On ENPP-1, MDA-MB-231 cells, the IC50 is 290 nM and the inhibition at 20 µM worked out at 85%. For the same molecule, in the data set “Pharmacokinetics in mice”, the AUC stood at 668 ng·h/mL, the clearance was 26 mL/min/kg, the half-life was 2.6 h and the Vd came to 4.3 L/kg.
As to `COc1ccc2c(ncc3nc(C)n(Cc4ccc(S(N)(=O)=O)c(F)c4)c32)n1` [Compound 71, 2-fluoro-4-((7-methoxy-2-methyl-1H-imidazo[4,5-c][1,8]naphthyridin-1-yl)methyl)benzenesulfonamide], at human soluble ENPP1 [1], the IC50 was found to be 1 nM. In addition, 2.9 nM corresponded to half-maximal inhibition on human soluble ENPP1 [2] (IC50). At ENPP-1, MDA-MB-231 cells, half-maximal inhibition (IC50) was put at 1100 nM and the inhibition at 20 µM came out at 76%. In the data set “Pharmacokinetics in mice”, the AUC amounted to 288 ng·h/mL, the clearance came to 60 mL/min/kg, the half-life was 0.74 h and the Vd came out at 2.8 L/kg.
On to `COc1ccc2c(ncc3c2n(Cc2c(F)cc(S(N)(=O)=O)cc2F)c(=O)n3CC(F)(F)F)n1` [Compound 131, 3,5-difluoro-4-((7-methoxy-2-oxo-3-(2,2,2-trifluoroethyl)-2,3-dihydro-1H-imidazo[4,5-c][1,8]naphthyridin-1-yl)methyl)benzenesulfonamide], for which the IC50 at human soluble ENPP1 [1] (setting [3]) was 0.04 nM; against human soluble ENPP1 [2], 0.19 nM; on ENPP-1, MDA-MB-231 cells, 80 nM. The inhibition at 20 µM on ENPP-1, MDA-MB-231 cells was 88%.
Regarding `COCCn1c(=O)n(Cc2c(F)cc(S(N)(=O)=O)cc2F)c2c3ccc(OC)nc3ncc21` [Compound 132, 3,5-difluoro-4-((7-methoxy-3-(2-methoxyethyl)-2-oxo-2,3-dihydro-1H-imidazo[4,5-c][1,8]naphthyridin-1-yl)methyl)benzenesulfonamide], the IC50 on human soluble ENPP1 [1] (setting [3]) was 0.33 nM; against human soluble ENPP1 [2], 0.74 nM. In addition, the inhibition at 20 µM at ENPP-1, MDA-MB-231 cells was determined as 87%.
On to `COc1ccc2c(ncc3cnn(Cc4ccc(S(N)(=O)=O)cn4)c32)n1` [Compound 135a, 6-((7-methoxy-1H-pyrazolo[4,3-c][1,8]naphthyridin-1-yl)methyl)pyridine-3-sulfonamide], for which the IC50 against human soluble ENPP1 [1] worked out at 0.66 nM; against human soluble ENPP1 [2], 1.4 nM; at ENPP-1, MDA-MB-231 cells, 80 nM. For the same molecule, the inhibition at 20 µM on ENPP-1, MDA-MB-231 cells came to 88%.
In the case of `COc1ccc2c(n1)nc(C)c1nnn(Cc3ccc(S(N)(=O)=O)cn3)c12` [Compound 136, 6-((7-methoxy-4-methyl-1H-[1,2,3]triazolo[4,5-c][1,8]naphthyridin-1-yl)methyl)pyridine-3-sulfonamide], the IC50 against human soluble ENPP1 [1] was determined as 7.4 nM; at human soluble ENPP1 [2] it was 21 nM; against ENPP-1, MDA-MB-231 cells, 0.31 nM. The inhibition at 20 µM at ENPP-1, MDA-MB-231 cells is 80%.

The record behind these values is patent US11673889B2, “Substituted imidazo[4,5-c][1,8]naphthyridines as phosphodiesterase inhibitors” (Nanjing Zhengxiang Pharmaceuticals Co., Ltd., priority 2019, dated 2023).
